The record followed here is patent US12011444B2, “N-substituted indole derivatives as PGE2 receptor modulators” (Idorsia Pharmaceuticals Ltd, priority 2015, dated 2024).

Experiment [1] addresses PTGER2 (EP2) (Homo sapiens (Human), UniProt P43116). Description: hEP2 b-arrestin assay (PathHunter HEK 293 PTGER2 b-arrestin cells). The experiment is classed as cell-based. The method, boiled down: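 Readout is β-galactosidase complementation luminescence, expressed as percent of DMSO control (duplicates). PathHunter HEK293 EP2/β-arrestin 2 cells, grown 24 h, received compound for 15 min at 37 °C before a 120 min challenge with PGE2 at 5 μM final, followed by 1 h detection at room temperature.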

In experiment [2] the target is PTRGER4 (EP4) (Homo sapiens (Human), UniProt P35408). Description: hEP4 b-arrestin assay (PathHunter HEK 293 PTGER4 b-arrestin cells). The experiment is classed as cell-based. The method, boiled down:
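Antagonist mode: compound is given 15 min at 37 °C, then 20 nM (final) PGE2 for 120 min, in HEK293 cells stably expressing EP4 fused to ProLink and β-arrestin 2 fused to EA. Recruitment read as β-gal luminescence after 1 h reagent at room temperature, as percent of DMSO control.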

[3] abbreviates: hEP2 b-arrestin assay (values without asterisk).
Setting [4] is: hEP4 b-arrestin assay (values without asterisk).
Where [5] appears, read: antagonistic activity on hEP2, mean where measured multiple times.
Setting [6] is: antagonistic activity on hEP4, mean where measured multiple times.

Sequence of PTGER2 (EP2) (P43116 whole entry): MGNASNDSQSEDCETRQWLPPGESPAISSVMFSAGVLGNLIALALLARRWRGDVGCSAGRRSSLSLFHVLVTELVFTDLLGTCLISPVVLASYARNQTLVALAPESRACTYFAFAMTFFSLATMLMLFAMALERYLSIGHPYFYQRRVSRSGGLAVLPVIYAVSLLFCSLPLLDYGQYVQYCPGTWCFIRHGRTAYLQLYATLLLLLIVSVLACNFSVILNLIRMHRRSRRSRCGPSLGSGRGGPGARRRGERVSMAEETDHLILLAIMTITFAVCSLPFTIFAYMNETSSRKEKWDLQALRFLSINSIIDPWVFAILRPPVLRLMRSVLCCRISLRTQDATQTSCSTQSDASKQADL
Sequence of PTRGER4 (EP4) (P35408 whole entry, looked up, the tested form may be a part): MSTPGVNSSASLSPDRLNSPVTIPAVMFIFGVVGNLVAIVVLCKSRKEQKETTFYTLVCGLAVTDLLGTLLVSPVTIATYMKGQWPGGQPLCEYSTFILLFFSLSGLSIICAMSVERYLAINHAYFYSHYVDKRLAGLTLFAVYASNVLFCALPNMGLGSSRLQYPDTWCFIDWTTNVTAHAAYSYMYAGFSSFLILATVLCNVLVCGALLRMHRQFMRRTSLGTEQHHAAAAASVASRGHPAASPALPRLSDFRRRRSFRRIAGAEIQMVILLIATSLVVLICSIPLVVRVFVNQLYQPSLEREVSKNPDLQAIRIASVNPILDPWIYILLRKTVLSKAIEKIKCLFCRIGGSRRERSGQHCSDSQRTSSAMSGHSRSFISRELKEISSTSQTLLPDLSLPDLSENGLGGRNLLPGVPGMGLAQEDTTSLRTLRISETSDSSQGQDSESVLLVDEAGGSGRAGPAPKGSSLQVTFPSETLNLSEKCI

Regarding `CCOc1cc(-c2cc(NCCn3c(C)cc4c(C)c(F)cc(Cl)c43)ncn2)sc1C(=O)O` [Example 837, 5-{6-[2-(7-Chloro-5-fluoro-2,4-dimethyl-indol-1-yl)-ethylamino]-pyrimidin-4-yl}-3-ethoxy-thiophene-2-carboxylic acid], the IC50 in experiment [1] (setting [3]) is 28 nM; in experiment [2] (setting [4]) it was 39 nM.

On to `CCOc1cc(-c2cc(NCCn3c(C#N)cc4c(OC)ccc(F)c43)ncn2)sc1C(=O)OCC(=O)O` [Example 1043, 5-{6-[2-(2-Cyano-7-fluoro-4-methoxy-indol-1-yl)-ethylamino]-pyrimidin-4-yl}-3-ethoxy-thiophene-2-carboxylic acid carboxymethyl ester], for which the IC50 in experiment [1] (setting [3]) stood at 5 nM; in experiment [2] (setting [4]) it was 1 nM.

Regarding `Cc1ccc(F)c2c1cc(C)n2CCNc1cc(-c2ccc(-c3nnc[nH]3)cc2)ncn1` [compound 99], the IC50 turned out to be 113 nM in experiment [1] (setting [5]) and 123 nM in experiment [2] (setting [6]).

As to `CCOc1cc(-c2cc(NCCn3c(C#N)cc4c(OC)cc(F)c(F)c43)ncn2)sc1C(=O)O` [Example 943, 5-{6-[2-(2-Cyano-6,7-difluoro-4-methoxy-indol-1-yl)-ethylamino]-pyrimidin-4-yl}-3-ethoxy-thiophene-2-carboxylic acid], the IC50 in experiment [1] (setting [3]) is 4 nM; in experiment [2] (setting [4]), 2 nM.

For `Cc1ccc(F)c2c1cc(C)n2CCNc1cc(-c2cc(Br)c(C(=O)O)cc2F)ncn1` [compound 126], the IC50 in experiment [1] (setting [5]) is 128 nM; in experiment [2] (setting [6]) it was 928 nM.

Regarding `CCc1cc(-c2cc(NCCn3c(C)cc4c(OC)ccc(Cl)c43)ncn2)sc1C(=O)O` [compound 225], the IC50 in experiment [1] (setting [5]) was 25 nM; in experiment [2] (setting [6]), 124 nM.

Turning to `CCOc1cc(-c2cc(NCCn3c(C)cc4c(Cl)cccc43)ncn2)ccc1C(=O)O` [compound 234], the IC50 was 3 nM in experiment [1] (setting [5]) and 249 nM in experiment [2] (setting [6]).

On to `COc1ccc(F)c2c1cc(C#N)n2CCNc1cc(-c2cccc(CC(=O)O)c2)ncn1` [Example 1004, (3-{6-[2-(2-Cyano-7-fluoro-4-methoxy-indol-1-yl)-ethylamino]-pyrimidin-4-yl}-phenyl)-acetic acid], for which the IC50 worked out at 117 nM in experiment [1] (setting [3]) and 144 nM in experiment [2] (setting [4]).

As for `Cc1cc2c(Cl)cc(Cl)cc2n1CCNc1cc(-c2cc(Cl)c(C(=O)O)s2)ncn1` [compound 44], the IC50 amounted to 5 nM in experiment [1] (setting [5]) and 240 nM in experiment [2] (setting [6]).

For the molecule `CNc1cc(-c2cc(NCCn3c(C)cc4c(OC)cc(F)cc43)ncn2)ccc1C(=O)O` [Example 1017, 4-{6-[2-(6-Fluoro-4-methoxy-2-methyl-indol-1-yl)-ethylamino]-pyrimidin-4-yl}-2-methylamino-benzoic acid], the values for the IC50 in experiment [1] (setting [3]) and in experiment [2] (setting [4]) were 7 nM and 31 nM, respectively.

As for `CCOc1cc(-c2cc(NCCn3c(C)cc4c(C)c(F)cc(Cl)c43)ncn2)ccc1C(=O)O` [compound 344, 4-{6-[2-(7-Chloro-5-fluoro-2,4-dimethyl-indol-1-yl)-ethylamino]-pyrimidin-4-yl}-2-ethoxy-benzoic acid], the 50% inhibitory concentration (IC50) in experiment [1] (setting [5]) turned out to be 34 nM; in experiment [2] (setting [6]) it was 319 nM.

With `COc1ccc(F)c2c1cc(C)n2CCNc1cc(-c2ccc3c(c2)CN(C)C3=O)ncn1` [compound 204, 5-{6-[2-(7-Fluoro-4-methoxy-2-methyl-indol-1-yl)-ethylamino]-pyrimidin-4-yl}-2-methyl-2,3-dihydro-isoindol-1-one], the IC50 in experiment [1] (setting [5]) was 31 nM; in experiment [2] (setting [6]), 182 nM.

For the molecule `COc1ccc(F)c2c1cc(C)n2CCNc1cc(-c2ccc(C(=O)O)c(OCC(F)(F)F)c2)ncn1` [Example 844, 4-{6-[2-(7-Fluoro-4-methoxy-2-methyl-indol-1-yl)-ethylamino]-pyrimidin-4-yl}-2-(2,2,2-trifluoro-ethoxy)-benzoic acid], the IC50 was found to be 5 nM in experiment [1] (setting [3]) and 142 nM in experiment [2] (setting [4]).

In the case of `COc1ccc(F)c2c1cc(C)n2CCNc1cc(-c2ccc(-c3noc(=O)[nH]3)cc2)ncn1` [compound 313, 3-(4-{6-[2-(7-Fluoro-4-methoxy-2-methyl-indol-1-yl)-ethylamino]-pyrimidin-4-yl}-phenyl)-4H-[1,2,4]oxadiazol-5-one], the IC50 in experiment [1] (setting [5]) turned out to be 7 nM; in experiment [2] (setting [6]), 110 nM.

For `Cc1cc(F)cc2c1cc(C)n2CCNc1cc(-c2ccc3cn[nH]c3c2)ncn1` [compound 7, [2-(6-Fluoro-2,4-dimethyl-indol-1-yl)-ethyl]-[6-(1H-indazol-6-yl)-pyrimidin-4-yl]-amine], the IC50 stood at 98 nM in experiment [1] (setting [5]) and 556 nM in experiment [2] (setting [6]).

As to `CCOc1cc(-c2cc(NCCn3c(C#N)cc4ccccc43)ncn2)ccc1C(=O)O` [compound 138, 4-{6-[2-(2-Cyano-indol-1-yl)-ethylamino]-pyrimidin-4-yl}-2-ethoxy-benzoic acid], the results for the IC50 in experiment [1] (setting [5]) and in experiment [2] (setting [6]) were 7 nM and 567 nM, respectively.

For the molecule `Cc1ccc(F)c2c1cc(C)n2CCNc1cc(-c2ccc(C(=O)O)c(Cl)c2)ncn1` [compound 29, 2-Chloro-4-{6-[2-(7-fluoro-2,4-dimethyl-indol-1-yl)-ethylamino]-pyrimidin-4-yl}-benzoic acid], the values for the IC50 in experiment [1] (setting [5]) and in experiment [2] (setting [6]) were 18 nM and 575 nM, respectively.

As to `COc1n[nH]c2cc(-c3cc(NCCn4c(C#N)cc5c(OC)ccc(F)c54)ncn3)ccc12` [Example 918, 7-Fluoro-4-methoxy-1-{2-[6-(3-methoxy-1H-indazol-6-yl)-pyrimidin-4-ylamino]-ethyl}-1H-indole-2-carbonitrile], the IC50 is 26 nM in experiment [1] (setting [3]) and 73 nM in experiment [2] (setting [4]).

For `CCOc1cc(-c2cc(NCCn3c(C)cc4c(OC)cc(F)cc43)ncn2)sc1C(=O)O` [compound 257], the IC50 in experiment [1] (setting [5]) was determined as 2 nM; in experiment [2] (setting [6]) it was 6 nM.

On to `COc1ccc(F)c2c1cc(C#N)n2CCNc1cc(-c2ccc(OCCO)cc2)ncn1` [Example 964, 7-Fluoro-1-(2-{6-[4-(2-hydroxy-ethoxy)-phenyl]-pyrimidin-4-ylamino}-ethyl)-4-methoxy-1H-indole-2-carbonitrile], for which the values for the IC50 in experiment [1] (setting [3]) and in experiment [2] (setting [4]) were 41 nM and 22 nM, respectively.

In the case of `COc1cccc2c1cc(C)n2CCNc1cc(-c2cc(F)c(C(=O)O)s2)ncn1` [compound 49], the IC50 in experiment [1] (setting [5]) came out at 4 nM; in experiment [2] (setting [6]) it was 235 nM.

As to `CCOc1cc(-c2cc(NCCn3c(C)cc4c(C)ccc(F)c43)ncn2)ccc1CO` [compound 124, (2-Ethoxy-4-{6-[2-(7-fluoro-2,4-dimethyl-indol-1-yl)-ethylamino]-pyrimidin-4-yl}-phenyl)-methanol], the IC50 turned out to be 7 nM in experiment [1] (setting [5]) and 151 nM in experiment [2] (setting [6]).

Take `CCc1cc(-c2cc(NCCn3c(C#N)cc4c(OC)ccc(F)c43)ncn2)ccc1C(=O)O` [Example 948, 4-{6-[2-(2-Cyano-7-fluoro-4-methoxy-indol-1-yl)-ethylamino]-pyrimidin-4-yl}-2-ethyl-benzoic acid]: the IC50 stood at 50 nM in experiment [1] (setting [3]) and 45 nM in experiment [2] (setting [4]).

On to `Cc1cc2ccccc2n1CCNc1cc(-c2ccc(C(=O)O)c(CC(C)C)c2)ncn1` [compound 119, 2-Isobutyl-4-{6-[2-(2-methyl-indol-1-yl)-ethylamino]-pyrimidin-4-yl}-benzoic acid], for which the IC50 in experiment [1] (setting [5]) is 18 nM; in experiment [2] (setting [6]), 941 nM.

With `CCOc1cc(C(=O)O)cc(-c2cc(NCCn3c(C#N)cc4c(OC)ccc(F)c43)ncn2)c1` [Example 1002, 3-{6-[2-(2-Cyano-7-fluoro-4-methoxy-indol-1-yl)-ethylamino]-pyrimidin-4-yl}-5-ethoxy-benzoic acid], the IC50 amounted to 20 nM in experiment [1] (setting [3]) and 31 nM in experiment [2] (setting [4]).

For the molecule `CCOc1cc(-c2cc(NCCn3c(C)cc4c(OC)cccc43)ncn2)ccc1-c1noc(=O)[nH]1` [Example 881, 3-(2-Ethoxy-4-{6-[2-(4-methoxy-2-methyl-indol-1-yl)-ethylamino]-pyrimidin-4-yl}-phenyl)-[1,2,4]oxadiazol-5(4H)-one], the IC50 is 5 nM in experiment [1] (setting [3]) and 41 nM in experiment [2] (setting [4]).

Regarding `COc1ccc(F)c2c1cc(C)n2CCNc1cc(-c2ccc(C(=O)NCCO)cc2)ncn1` [compound 361], the figures for the IC50 in experiment [1] (setting [5]) and in experiment [2] (setting [6]) were 67 nM and 678 nM, respectively.

As for `CCc1cc(-c2cc(NCCn3c(C)cc4c(OC)ccc(F)c43)ncn2)sc1C(=O)O` [compound 230], the IC50 in experiment [1] (setting [5]) was 5 nM; in experiment [2] (setting [6]), 13 nM.

For `Cc1cc(-c2cc(NCCn3c(C)cc4c(C)ccc(F)c43)ncn2)ccc1CO` [compound 22], the IC50 is 78 nM in experiment [1] (setting [5]) and 369 nM in experiment [2] (setting [6]).

With `CCc1cc(-c2cc(NCCn3c(C)cc4c(OC)cccc43)ncn2)cc(Cl)c1C(=O)O` [compound 160, 2-Chloro-6-ethyl-4-{6-[2-(4-methoxy-2-methyl-indol-1-yl)-ethylamino]-pyrimidin-4-yl}-benzoic acid], the IC50 was 48 nM in experiment [1] (setting [5]) and 204 nM in experiment [2] (setting [6]).

On to `COc1ccc(F)c2c1cc(C#N)n2CCNc1cc(-c2ccc(NC=O)cc2)ncn1` [Example 971, N-(4-{6-[2-(2-Cyano-7-fluoro-4-methoxy-indol-1-yl)-ethylamino]-pyrimidin-4-yl}-phenyl)-formamide], for which the IC50 in experiment [1] (setting [3]) worked out at 39 nM; in experiment [2] (setting [4]) it was 24 nM.

Take `COc1ccc(F)c2c1cc(C#N)n2CCNc1cc(-c2ccc3nccn3c2)ncn1` [Example 995, 7-Fluoro-1-[2-(6-imidazo[1,2-a]pyridin-6-yl-pyrimidin-4-ylamino)-ethyl]-4-methoxy-1H-indole-2-carbonitrile]: the figures for the IC50 in experiment [1] (setting [3]) and in experiment [2] (setting [4]) were 13 nM and 52 nM, respectively.

Regarding `COCCNC(=O)c1ccc(-c2cc(NCCn3c(C#N)cc4c(OC)ccc(F)c43)ncn2)cc1` [Example 996, 4-{6-[2-(2-Cyano-7-fluoro-4-methoxy-indol-1-yl)-ethylamino]-pyrimidin-4-yl}-N-(2-methoxy-ethyl)-benzamide], the IC50 in experiment [1] (setting [3]) was determined as 39 nM; in experiment [2] (setting [4]), 99 nM.

One may read the IC50 as the concentration that inhibits the measured activity by half.
